# Source: patent US20260287577A1, “APPLICATIONS OF HEPATOCYTE CO-CULTURE SYSTEM” (LifeNet Health, priority 2023, published 2026)
# Read-outs that look alike come from different tables or passages of the source.
# Assays:
# Type in all cases: cell-based, human
# LOX (lysyl oxidase) = assay: cells; conditions: Homo sapiens
# Protocol: (§1) Methods: The hepatic tri-culture system, including adult primary human hepatocytes (PHHs), endothelial cells and stromal cells, was cultured with and without primary KCs, at a ratio of 1 KC:4 PHH or 1 KC:2 PHH, in a glucocorticoid-containing or -free media. […] MTX or TGF-β1 or […] (LPS) cause hepatic injury. The injury leads to lipid accumulation, lipotoxicity and cytokines are produced. These activate the KCs and the liver sinusoidal endothelial cells (LSEC). Then stromal activation and gene expressions occur, leading to liver fibrosis.
# (§2) Following exposure to methotrexate (MTX; 0.1 and 1 μM; Sigma-Aldrich, St. Louis, MO) or TGF-β1 (0.1 and 10 ng/ml; Miltenyi Biotec, Gaithersburg, MD) or vehicle (DMSO; 0.1% v/v), the expression of various genes known to have a role in fibrogenic responses (e.g., LGALS3, LOX, MMP1) was determined. MTX and TGF-β1 are known fibrogenic compounds Cell health was assessed by urea production and LDH release in the medium.
# (§3) The experiments were done in a 96-well format according to the details shown below. […] The hepatocytes were from an individual adult lot. The Kupffer cells (KCs) were from an individual adult lot. The seeding density of the Kupffer cells to the hepatocytes was selected to mimic healthy or inflammatory physiological levels (1:4 or 1:2 ratio). The seeding of the KCs occurred on Day 1 of the culture (meaning 24 hours post-hepatocyte plating).
# (§4) All hepatocyte plating was performed using TCPM with Dex (1 μM), as above. Four hours after hepatocyte plating, TCCM was added with and without Dex (half of the cultures with Dex, half without.) The media used were those as described above. The medium exchange process was to do 50% media changes following KC plating up until the compound addition.
# (§5) Thawing and plating of the hepatocytes was done according to methods as known in the art. The next day (24 hours) after plating the cells, the KCs were added in TCCM with or without Dex (0.1 μM) at a 1:4 or 1:2 ratio to hepatocytes. The next day and subsequent days, 50% volume of medium was changed each day. Starting at day 5 of culture, the compounds tested were added in the 50% medium volume and allowed to go, unchanged, through Day 8 of culture (72 hr treatment); or to 120 hr treatment times. The treatment compounds were methotrexate (0.1 and 1.0 μM) and TGF-β1 (0.1 and 10 ng/ml).
# (§6) The cell harvest and analytical endpoints were done as follows. Phase contrast images were captured each day. The media samples were collected for lactate dehydrogenase (LDH) assay at the end of each treatment period (i.e., 72 or 120 hours of treatment with each compound). The results were used to assess cell health. Cell lysates were harvested for gene expression analysis. 2 wells were combined per sample. The treatment samples were analyzed in triplicate. The following genes that have a role in fibrogenic response were observed. LGALS3 (Galectin3); LOX (lysyl oxidase), MMP1 (matrix Metalloproteinase 1); Housekeeping gene (β-actin). The images in FIGS. 44 and 45 are at 200×.
# LGALS3 (Galectin3) = assay: cells; conditions: for fold induction at 0.1 µM / fold induction at 1 µM: Homo sapiens
# Protocol: as §1, §2, §3, §4, §5, §6
# [1] = tested on: MMP1 (matrix Metalloproteinase 1); assay: cells; conditions: Homo sapiens
# Protocol: as §1, §2, §3, §4, §5, §6
# [2] = tested on: genes known to have a role in fibrogenic responses (e.g., LGALS3, LOX, MMP1); assay: Fibrogenic response gene expression overall, Example 9; conditions: DEX / no DEX, with / without KCs
# Protocol: as §1, §2, §3, §4
# Thawing and plating of the hepatocytes was done according to methods as known in the art. The next day (24 hours) after plating the cells, the KCs were added in TCCM with or without Dex (0.1 μM) at a 1:4 or 1:2 ratio to hepatocytes. […]
# The cell harvest and analytical endpoints were done as follows. […] The treatment samples were analyzed in triplicate. […]
smiles,measurement,setting,value
"CN(Cc1cnc2nc(N)nc(N)c2n1)c1ccc(C(=O)N[C@@H](CCC(=O)O)C(=O)O)cc1 [MTX, methotrexate]",fold induction at 0.1 µM,"LOX (lysyl oxidase); 72 h, read-out: LOX fold induction Mean, 72 hours, with Dex, No KC, MTX 0.1 μM",1.2
same,fold induction at 1 µM,"LOX (lysyl oxidase); 72 h, read-out: LOX fold induction Mean, 72 hours, with Dex, No KC, MTX 1 μM",1.1
same,fold induction at 0.1 µM,"LOX (lysyl oxidase); 72 h, read-out: LOX fold induction Mean, 72 hours, with Dex, with KCs, MTX 0.1 μM",1
same,fold induction at 1 µM,"LOX (lysyl oxidase); 72 h, read-out: LOX fold induction Mean, 72 hours, with Dex, with KCs, MTX 1 μM",1
same,fold induction at 0.1 µM,"LOX (lysyl oxidase); 72 h, read-out: LOX fold induction Mean, 72 hours, without Dex, No KC, MTX 0.1 μM",1.1
same,fold induction at 1 µM,"LOX (lysyl oxidase); 72 h, read-out: LOX fold induction Mean, 72 hours, without Dex, No KC, MTX 1 μM",1.1
same,fold induction at 0.1 µM,"LOX (lysyl oxidase); 72 h, read-out: LOX fold induction Mean, 72 hours, without Dex, with KCs, MTX 0.1 μM",1.3
same,fold induction at 1 µM,"LOX (lysyl oxidase); 72 h, read-out: LOX fold induction Mean, 72 hours, without Dex, with KCs, MTX 1 μM",1.5
same,fold induction at 1 µM,"LOX (lysyl oxidase); 120 h, read-out: LOX fold induction Mean, 120 hours, with Dex, No KC, MTX 1 μM",0.8
same,fold induction at 0.1 µM,"LOX (lysyl oxidase); 120 h, read-out: LOX fold induction Mean, 120 hours, with Dex, with KCs, MTX 0.1 μM",1
same,fold induction at 1 µM,"LOX (lysyl oxidase); 120 h, read-out: LOX fold induction Mean, 120 hours, with Dex, with KCs, MTX 1 μM",1.1
same,fold induction at 0.1 µM,"LOX (lysyl oxidase); 120 h, read-out: LOX fold induction Mean, 120 hours, without Dex, No KC, MTX 0.1 μM",1
same,fold induction at 1 µM,"LOX (lysyl oxidase); 120 h, read-out: LOX fold induction Mean, 120 hours, without Dex, No KC, MTX 1 μM",1.2
same,fold induction at 0.1 µM,"LOX (lysyl oxidase); 120 h, read-out: LOX fold induction Mean, 120 hours, without Dex, with KCs, MTX 0.1 μM",1.4
same,fold induction at 1 µM,"LOX (lysyl oxidase); 120 h, read-out: LOX fold induction Mean, 120 hours, without Dex, with KCs, MTX 1 μM",1.5
same,fold induction at 1 µM,"LOX (lysyl oxidase); read-out: LOX gene expression, 1 μM MTX, presence of KCs, 72 hr and 120 hr",≥ 1.5
same,fold induction at 0.1 µM,"LGALS3 (Galectin3); 72 h, read-out: LGALS3 fold induction Mean, 72 hours, with Dex, No KC, MTX 0.1 μM",1
same,fold induction at 1 µM,"LGALS3 (Galectin3); 72 h, read-out: LGALS3 fold induction Mean, 72 hours, with Dex, No KC, MTX 1 μM",1.2
same,fold induction at 0.1 µM,"LGALS3 (Galectin3); 72 h, read-out: LGALS3 fold induction Mean, 72 hours, with Dex, with KCs, MTX 0.1 μM",1
same,fold induction at 1 µM,"LGALS3 (Galectin3); 72 h, read-out: LGALS3 fold induction Mean, 72 hours, with Dex, with KCs, MTX 1 μM",1.1
same,fold induction at 0.1 µM,"LGALS3 (Galectin3); 72 h, read-out: LGALS3 fold induction Mean, 72 hours, without Dex, No KC, MTX 0.1 μM",1.2
same,fold induction at 1 µM,"LGALS3 (Galectin3); 72 h, read-out: LGALS3 fold induction Mean, 72 hours, without Dex, No KC, MTX 1 μM",1.2
same,fold induction at 0.1 µM,"LGALS3 (Galectin3); 72 h, read-out: LGALS3 fold induction Mean, 72 hours, without Dex, with KCs, MTX 0.1 μM",1.5
same,fold induction at 1 µM,"LGALS3 (Galectin3); 72 h, read-out: LGALS3 fold induction Mean, 72 hours, without Dex, with KCs, MTX 1 μM",1.7
same,fold induction at 0.1 µM,"LGALS3 (Galectin3); 120 h, read-out: LGALS3 fold induction Mean, 120 hours, with Dex, No KC, MTX 0.1 μM",1.2
same,fold induction at 1 µM,"LGALS3 (Galectin3); 120 h, read-out: LGALS3 fold induction Mean, 120 hours, with Dex, No KC, MTX 1 μM",1.1
same,fold induction at 0.1 µM,"LGALS3 (Galectin3); 120 h, read-out: LGALS3 fold induction Mean, 120 hours, with Dex, with KCs, MTX 0.1 μM",0.9
same,fold induction at 1 µM,"LGALS3 (Galectin3); 120 h, read-out: LGALS3 fold induction Mean, 120 hours, with Dex, with KCs, MTX 1 μM",1.1
same,fold induction at 0.1 µM,"LGALS3 (Galectin3); 120 h, read-out: LGALS3 fold induction Mean, 120 hours, without Dex, No KC, MTX 0.1 μM",1.1
same,fold induction at 1 µM,"LGALS3 (Galectin3); 120 h, read-out: LGALS3 fold induction Mean, 120 hours, without Dex, No KC, MTX 1 μM",0.2
same,fold induction at 0.1 µM,"LGALS3 (Galectin3); 120 h, read-out: LGALS3 fold induction Mean, 120 hours, without Dex, with KCs, MTX 0.1 μM",1.4
same,fold induction at 1 µM,"LGALS3 (Galectin3); 120 h, read-out: LGALS3 fold induction Mean, 120 hours, without Dex, with KCs, MTX 1 μM",1.4
same,LGALS3 gene expression,"LGALS3 (Galectin3); MTX at both concentrations, presence of KCs, 120 hr versus 72 hr",slight decline
same,fold induction at 0.1 µM,"[1]; 72 h, read-out: MMP1 fold induction Mean, 72 hours, with Dex, No KC, MTX 0.1 μM",1.2
same,fold induction at 1 µM,"[1]; 72 h, read-out: MMP1 fold induction Mean, 72 hours, with Dex, No KC, MTX 1 μM",1.2
same,fold induction at 0.1 µM,"[1]; 72 h, read-out: MMP1 fold induction Mean, 72 hours, with Dex, with KCs, MTX 0.1 μM",1.1
same,fold induction at 1 µM,"[1]; 72 h, read-out: MMP1 fold induction Mean, 72 hours, with Dex, with KCs, MTX 1 μM",0.9
same,fold induction at 0.1 µM,"[1]; 72 h, read-out: MMP1 fold induction Mean, 72 hours, without Dex, No KC, MTX 0.1 μM",0.9
same,fold induction at 1 µM,"[1]; 72 h, read-out: MMP1 fold induction Mean, 72 hours, without Dex, No KC, MTX 1 μM",0.7
same,fold induction at 0.1 µM,"[1]; 72 h, read-out: MMP1 fold induction Mean, 72 hours, without Dex, with KCs, MTX 0.1 μM",1.2
same,fold induction at 1 µM,"[1]; 72 h, read-out: MMP1 fold induction Mean, 72 hours, without Dex, with KCs, MTX 1 μM",1.4
same,fold induction at 1 µM,"[1]; 72 h, read-out: MMP1 gene expression, 1 μM MTX, presence of KCs, 72 hr only",1.4
same,fold induction at 1 µM,"[1]; 120 h, read-out: MMP1 fold induction Mean, 120 hours, with Dex, No KC, MTX 1 μM",0.7
same,fold induction at 0.1 µM,"[1]; 120 h, read-out: MMP1 fold induction Mean, 120 hours, with Dex, with KCs, MTX 0.1 μM",1
same,fold induction at 1 µM,"[1]; 120 h, read-out: MMP1 fold induction Mean, 120 hours, with Dex, with KCs, MTX 1 μM",0.6
same,fold induction at 0.1 µM,"[1]; 120 h, read-out: MMP1 fold induction Mean, 120 hours, without Dex, No KC, MTX 0.1 μM",0.7
same,fold induction at 1 µM,"[1]; 120 h, read-out: MMP1 fold induction Mean, 120 hours, without Dex, No KC, MTX 1 μM",0.7
same,fold induction at 0.1 µM,"[1]; 120 h, read-out: MMP1 fold induction Mean, 120 hours, without Dex, with KCs, MTX 0.1 μM",0.7
same,fold induction at 1 µM,"[1]; 120 h, read-out: MMP1 fold induction Mean, 120 hours, without Dex, with KCs, MTX 1 μM",0.9
same,culture conditions in which effects on fibrogenic genes were observed,[2],observed on the no DEX treated groups with KCs
